Patent US8440671B2, “Compositions comprising a phoshodiesterase-5 inhibitor and their use in methods of treatment” (priority 2007, dated 2013)

Tests used:
[1] = test system: subject with atypical Parkinson's Disease, severe seborrheic dermatitis and scarring facial acne rosacea; type: in vivo
Text: A third subject was diagnosed with atypical Parkinson's Disease with an initial presentation fifteen years earlier with cogwheel type diffuse tremor of low amplitude, diffuse muscular rigidity, mild bradykinesia, gait abnormalities.
Patient is a non-smoker and social drinker with minimal alcohol consumption and no history of drug abuse. Chronic problems of borderline hypertension (treated with diet and HYTRIN® (terazoin)), benign prostatic hypertrophy (treated with HYTRIN® (terazoin) and voding training), GERD treated intermittently as needed with PRILOSEC® (omeprazole) plus PEPCID® (famotidine) for short periods, DJD of cervical and lumbar spine treated intermittently with physical therapy, TYLENOL® (acetaminophen), occasional VICODIN® (acetaminophen/hydrocodone) as needed.

[2] = test system: subject with rapidly progressive multi-system neurodegenerative disease, facial acne, vitiligo, gingival infections; type: in vivo; settings: for clinical response to neurological disease, skin and mucous membrane disorders: each drug given individually; for substitution within the oral combination: Viagra 50 mg TID for oral Cialis, Paxil 20 mg TID for Luvox
Text: A second subject was diagnosed with nonspecific but rapidly progressive multi-system neurodegenerative disease. […] Initial presentation was with abrupt onset dementia with rapid progression over 3-4 months. Severe, generalized myoclonus of high amplitude with ataxia, dyspahagia, central and peripheral respiratory distress (requiring CPAP), dizziness, and hypokinetic rigidity followed some one month later and have continued to progress as well as dementia.
Mild intermittent gingival infections requiring minimal surgical intervention with retraction from tooth line for over ten years.
Patient was a non-smoker with no alcohol or other drug consumption. Patient suffered from coexisting prior problem of chronic atrial fibrillation, currently rate controlled with exercise alone and anticoagulation intermittently with Coumadin.
The twenty four hour doses, put into 7.5 cc of water solution, was also applied topically to scar noted previously. […] Patient also takes Folic acid—1 mg per day, and Vitamin B6.

[3] = test system: subject with Alzheimer's Disease and dementia; settings: for clinical status changes: cholinesterase inhibitor alone
Text: A fifth subject was diagnosed with Alzheimer's Disease and dementia and administered a combination of PI-5, SSRI and CI.

[4] = test system: subject with Parkinson's Disease; assay: Example 4: case report, subject with Parkinson's Disease given PI-5, SSRI and DI
Text: A fourth subject was diagnosed with Parkinson's Disease and administered a combination of PI-5, SSRI and DI.

CN1CCc2cccc3c2[C@H]1Cc1ccc(O)c(O)c1-3 [Apomorphine, apomorphine]
paradoxical response to IV Apomorphine ([1]; IV, part of work-up): decreased blood pressure and worsening of rigidity and tremor

COCCCC/C(=N\OCCN)c1ccc(C(F)(F)F)cc1 [LUVOX® (fluvoxamine), fluvoxamine]
clinical response to neurological disease, skin and mucous membrane disorders [2]: without any clinical response

COc1cc2c(cc1OC)C(=O)C(CC1CCN(Cc3ccccc3)CC1)C2 (centres unmarked) [ARICEPT® (donepezil), donepezil]
clinical status changes [3]: without significant clinical status changes
substitution for COGNEX within the combination ([3]; two week period, without noticeable changes): successfully substituted

CC(C)C[C@H]1C(=O)N2CCC[C@H]2[C@]2(O)O[C@](NC(=O)[C@@H]3C=C4c5cccc6[nH]c(Br)c(c56)C[C@H]4N(C)C3)(C(C)C)C(=O)N12 [Bromocriptine, bromocriptine]
change on short periods of treatment ([4]; short periods later in disease): without significant change

NC12CC3CC(CC(C3)C1)C2 [Amantadine, amantadine]
change in seborrheic dermatitis or acne rosacea ([1]; chronic low-dose treatment): No change
improvement of all symptoms ([1]; chronic low-dose treatment): little or no improvement

Nc1c2c(nc3ccccc13)CCCC2 [COGNEX® (tacrine), tacrine]
clinical status changes [3]: without significant clinical status changes
effect on all symptoms when added to the regimen ([4]; added to Luvox, Cialis, Sinemet regimen): mild improvements
tolerability when added to the regimen ([4]; human, in vivo): discontinued secondary to gastrointestinal upset
clinical response to neurological disease, skin and mucous membrane disorders [2]: without any clinical response

Fc1ccc([C@@H]2CCNC[C@H]2COc2ccc3c(c2)OCO3)cc1 [Paxil, paroxetine]
substitution within the oral combination [2]: equivalently substituted

CCCc1nn(C)c2c(=O)[nH]c(-c3cc(S(=O)(=O)N4CCN(C)CC4)ccc3OCC)nc12 [VIAGRA® (sildenafil), sildenafil]
substitution within the oral combination [2]: equivalently substituted
clinical response to neurological disease, skin and mucous membrane disorders [2]: without any clinical response
